Assay results: US9265756B2, “Crystalline forms of grapiprant” (Aratana Therapeutics Inc., priority 2014, dated 2016)
Entries after “also recorded” stand apart in the source; their conditions may differ. One block for each molecule: values may come before it.

Experiments:
[1] = water activity relating Forms A and D; format: physicochemical; conditions: room temperature
Experimental: Overall, FIG. 1 summarizes the relationship of each polymorphic form with relationship to each other. Form J may be converted to Form D by drying in air (1). Form J may be converted to Form A by slurry in DCM/acetone (<1:2 v/v) at 25° C. (2). Form A may be converted to Form J by precipitation from DCM/n-heptane (2:1 v/v) (3). Forms A and D have an aw value of about 0.6 at room temperature (4). Form X may be converted from a slurry mixture of Form D and Form J in DCM/acetone or DCM/n-heptane (2:1 v/v) at room temperature (5). Form X may be converted to Form A by slurry in DCM/acetone (1:1 v/v) (6). Form A may be converted to Form X by slurry in DCM/acetone (≦1:3 v/v (7) or 1:2 v/v with 0.3 wt. % water (8)). Form X2 may be converted to Form A by slurry in DCM/acetone (1:3 v/v) with 0.3 wt. % water (9). Form A may be converted to Form X2 by slurry in acetone with 0.3 wt. % water (10). Form X2 may be converted to Form X3 by drying (11). Form X2 may also be generated by slurry of Forms A and X3 in DCM/acetone (1:3 v/v) with 0.3 wt. % water (12).

[2] = stability of crystalline forms (slurry experiments); conditions: in 1:1 DCM/acetone (v/v)
Experimental: The stability of the crystalline forms was analyzed using slurry experiments. A portion of the solvent of interest was saturated with grapiprant in a small vial. Additional grapiprant was then added to the vial, and the resulting slurry was stirred using a magnetic stir bar.

[3] = solid form change on heating (XRPD); format: physicochemical
Experimental: The X-ray powder diffraction (XRPD) pattern was determined using an X-ray diffractometer. The instrument was equipped with a long fine focus X-ray tube (with a copper Kα radiation source operated at 45 kV/40 mA), and a diffracted beam monochromator mounted in front of a scintillation detector. The instrument parameters included a scan range of 3.0 to 40.0 degrees 2-theta, a step size of 0.02 degrees 2-theta, and a scan time of 12.7 seconds per step. The instrument was interfaced with a computer for data acquisition and analysis. Each sample was uniformly crushed with a spatula edge and placed on a quartz, zero-background holder.

[4] = system: other human prostanoid receptor subtypes; conditions: cited from earlier work
[5] = system: thermal hyperalgesia induced by intraplantar injection of PGE2; conditions: oral administration; cited from earlier work
[6] = system: mechanical hyperalgesia induced by carrageenan model; conditions: cited from earlier work
[7] = system: complete Freund's adjuvant-induced chronic inflammatory pain response; conditions: cited from earlier work

- aw value [1]: about 0.6
- relative stability of crystalline forms [2]: more stable than Form J
Structure (SMILES): CCc1nc2c(C)nc(C)cc2n1-c1ccc(CCNC(=O)NS(=O)(=O)c2ccc(C)cc2)cc1 [Form A]

Structure (SMILES): CCc1nc2c(C)nc(C)cc2n1-c1ccc(CCNC(=O)NS(=O)(=O)c2ccc(C)cc2)cc1 [Form J]
- form after heating (XRPD) ([3]; heating to 120° C.): becomes Form A; also recorded: converted into Form A

Structure (SMILES): CCc1nc2c(C)nc(C)cc2n1-c1ccc(CCNC(=O)NS(=O)(=O)c2ccc(C)cc2)cc1 [Form X]
- form after heating (XRPD) ([3]; heating to 110° C.): becomes amorphous; also recorded: converted into amorphous

Structure (SMILES): CCc1nc2c(C)nc(C)cc2n1-c1ccc(CCNC(=O)NS(=O)(=O)c2ccc(C)cc2)cc1 [grapiprant, N-{2-[4-(2-ethyl-4,6-dimethyl-1H-imidazo[4,5-c]pyridin-1-yl)phenyl]ethyl}-N′-[(4-methylphenyl)sulfonyl]urea]
- selectivity for the EP4 receptor over other human prostanoid receptor subtypes [4]: highly selective
- ED50, reduction of thermal hyperalgesia [5]: 12.8 mg/kg
- effect on mechanical hyperalgesia [6]: significantly reduces
- effect on chronic inflammatory pain response [7]: reverses
